From patent publication US20060167270A1, “5-substituted 2h-pyrazone-3-carbixylic acid derivatives as antilipolytic agents for the treatment of metabolic-related disorders such as dyslipidemia” (Arena Pharmaceuticals Inc., priority 2002, published 2006) come the findings set out here.

For the assay, the target named is T1, hRUP25 (Homo sapiens, UniProt Q8TDS4).
T1 construct: expressed in transfected cells; host or cells: CHO cells, stably transfected
Put plainly: cAMP Whole Cell assay (Flash Plate Adenylyl Cyclase kit) in CHO cells stably transfected with hRUP25. The class given is cell-based. The note with it: CHO cells stably expressing hRUP25; average of two (2) trials. An excerpt: A modified Flash Plate™ Adenylyl Cyclase kit (New England Nuclear, Cat. No. SMP004A) was utilized for direct identification of candidate compounds as agonists to hRUP25 (Seq. Id. Nos. 1 & 2) in accordance with the following protocol:
CHO cells stably transfected with an expression vector encoding hRUP25 and cultured under condition permissive for cell surface expression of the encoded hRUP25 receptor were harvested from flasks via non-enzymatic means. The cells were washed in PBS and resuspended in the manufacturer's Assay Buffer. Live cells were counted using a hemacytometer and Trypan blue exclusion, and the cell concentration was adjusted to 2×10^6 cells/ml. cAMP standards and Detection Buffer (comprising 2 μCi of tracer [^125I]-cAMP (100 μl) to 11 ml Detection Buffer) were prepared and maintained in accordance with the manufacturer's instructions. Candidate compounds identified as per above (if frozen, thawed at room temperature) were added to their respective wells (preferably wells of a 96-well plate) at increasing concentrations (3 μl/well; 12 μM final assay concentration). […] Plates were counted in a Wallac MicroBeta™ plate reader using “Prot. #31” (as per manufacturer instructions).
The biological in vitro activity was determined using the cAMP Whole Cell method, one representative example is shown in the table below: […]

T1 sequence (Q8TDS4 whole entry): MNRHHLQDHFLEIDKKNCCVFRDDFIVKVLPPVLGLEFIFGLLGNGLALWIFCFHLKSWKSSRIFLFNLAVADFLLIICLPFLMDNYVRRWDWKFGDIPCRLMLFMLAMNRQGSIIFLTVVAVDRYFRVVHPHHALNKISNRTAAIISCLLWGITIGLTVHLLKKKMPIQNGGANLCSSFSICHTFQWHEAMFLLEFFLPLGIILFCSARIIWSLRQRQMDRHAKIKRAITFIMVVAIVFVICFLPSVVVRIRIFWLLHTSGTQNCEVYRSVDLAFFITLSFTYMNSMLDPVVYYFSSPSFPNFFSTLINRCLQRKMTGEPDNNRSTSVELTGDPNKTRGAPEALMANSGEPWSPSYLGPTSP

On to `CCCCc1[nH]nc(C(=O)O)c1F` [Compound 8, 5-Butyl-4-fluoro-1H-pyrazole-3-carboxylic acid], for which it took 900 nM to reach half-maximal inhibition (IC50).
